Reference: PMC5047880, “Characterization of Linoleate 10-Hydratase of Lactobacillus plantarum and Novel Antifungal Metabolites” (Frontiers in Microbiology, 2016)

Tests used:
Experiment in all cases: activity of apoenzyme after addition of FAD, LC-APPI-MS
Type in all cases: biochemical
Conditions in all cases: 0.2 mM FAD, 4°C, 24 h; linoleic acid as substrate, MES pH 6.1
[1] = target: T1, LAH of Lactobacillus reuteri (linoleate 10-hydratase, 10-LAH) (Limosilactobacillus reuteri, UniProt A0A1I9RYU8)
T1 construct: full length, 590 residues; His-tag from pET-28a(+) (NdeI/NotI); primers encode MYYSNGNY... and ...MEEQHLL
T1 sequence (A0A1I9RYU8 1-590): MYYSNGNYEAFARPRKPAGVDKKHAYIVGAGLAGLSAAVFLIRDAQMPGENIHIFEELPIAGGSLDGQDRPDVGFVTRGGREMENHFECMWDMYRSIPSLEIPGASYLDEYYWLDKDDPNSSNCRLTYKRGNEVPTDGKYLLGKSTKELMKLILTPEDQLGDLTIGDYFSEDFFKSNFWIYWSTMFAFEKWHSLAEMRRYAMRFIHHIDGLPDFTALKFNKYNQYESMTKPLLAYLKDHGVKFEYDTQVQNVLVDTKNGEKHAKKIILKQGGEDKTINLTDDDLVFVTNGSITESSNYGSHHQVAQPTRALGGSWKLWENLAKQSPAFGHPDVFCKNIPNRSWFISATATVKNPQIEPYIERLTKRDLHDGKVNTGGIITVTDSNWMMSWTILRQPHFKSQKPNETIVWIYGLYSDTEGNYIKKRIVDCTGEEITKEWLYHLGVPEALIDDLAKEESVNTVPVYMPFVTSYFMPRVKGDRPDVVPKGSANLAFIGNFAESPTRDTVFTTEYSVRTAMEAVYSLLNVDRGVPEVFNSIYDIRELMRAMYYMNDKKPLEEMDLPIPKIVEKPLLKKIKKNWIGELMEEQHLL

[2] = target: T2, LAH of Lactobacillus hammesii (linoleate 10-hydratase, 10-LAH) (Levilactobacillus hammesii, UniProt A0A1I9RYV0)
T2 construct: full length, 564 residues; His-tag from pET-28a(+) (BamHI/HindIII); primers encode MVKTKAVM... and ...ATKRMFS
T2 sequence (A0A1I9RYV0 1-564): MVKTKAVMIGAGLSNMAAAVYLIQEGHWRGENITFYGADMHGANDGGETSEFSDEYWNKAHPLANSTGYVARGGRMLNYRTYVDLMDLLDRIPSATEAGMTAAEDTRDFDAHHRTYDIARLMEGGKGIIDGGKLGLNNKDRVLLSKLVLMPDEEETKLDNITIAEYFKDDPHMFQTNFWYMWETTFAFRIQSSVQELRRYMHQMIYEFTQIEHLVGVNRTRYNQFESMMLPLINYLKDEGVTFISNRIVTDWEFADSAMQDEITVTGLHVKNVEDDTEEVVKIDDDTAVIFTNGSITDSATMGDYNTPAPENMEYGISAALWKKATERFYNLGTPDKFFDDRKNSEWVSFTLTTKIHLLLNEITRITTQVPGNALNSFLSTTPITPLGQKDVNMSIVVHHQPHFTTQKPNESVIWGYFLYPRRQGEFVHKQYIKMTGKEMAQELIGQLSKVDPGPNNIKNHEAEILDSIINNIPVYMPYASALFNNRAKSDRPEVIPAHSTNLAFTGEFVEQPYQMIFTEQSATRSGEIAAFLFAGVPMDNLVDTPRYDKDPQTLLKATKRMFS

[3] = target: T3, LAH of Lactobacillus plantarum (linoleate 10-hydratase, 10-LAH) (Lactiplantibacillus plantarum, UniProt A0A1I9RYU9)
T3 construct: full length, 564 residues; His-tag from pET-28a(+) (EcoRI/NotI); primers encode MVKSKAIM... and ...ATKKMFD
T3 sequence (A0A1I9RYU9 1-564): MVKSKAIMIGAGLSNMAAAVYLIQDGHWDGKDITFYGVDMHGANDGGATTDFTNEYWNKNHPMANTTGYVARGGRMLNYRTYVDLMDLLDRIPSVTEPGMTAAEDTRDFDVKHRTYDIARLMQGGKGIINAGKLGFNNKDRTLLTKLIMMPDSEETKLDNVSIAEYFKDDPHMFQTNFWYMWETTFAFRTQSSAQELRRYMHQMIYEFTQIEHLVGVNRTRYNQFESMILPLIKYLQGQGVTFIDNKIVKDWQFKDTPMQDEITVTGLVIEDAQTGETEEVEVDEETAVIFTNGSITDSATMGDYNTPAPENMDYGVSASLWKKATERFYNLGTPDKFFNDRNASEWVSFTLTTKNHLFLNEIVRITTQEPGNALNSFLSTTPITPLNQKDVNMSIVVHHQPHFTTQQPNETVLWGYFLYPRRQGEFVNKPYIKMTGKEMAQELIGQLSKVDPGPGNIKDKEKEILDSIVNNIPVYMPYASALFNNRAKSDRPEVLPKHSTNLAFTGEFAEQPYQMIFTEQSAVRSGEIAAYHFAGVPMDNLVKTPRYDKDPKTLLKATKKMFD

[4] = target: T4, LAH of Lactobacillus spicheri (linoleate 10-hydratase, 10-LAH) (Levilactobacillus spicheri, UniProt A0A0F3RUK6)
T4 construct: gene lai; full length, 564 residues; His-tag from pET-28a(+) (EcoRI/NotI); primers encode MVKTKAVM... and ...ATKKMFS
T4 sequence (A0A0F3RUK6 1-564): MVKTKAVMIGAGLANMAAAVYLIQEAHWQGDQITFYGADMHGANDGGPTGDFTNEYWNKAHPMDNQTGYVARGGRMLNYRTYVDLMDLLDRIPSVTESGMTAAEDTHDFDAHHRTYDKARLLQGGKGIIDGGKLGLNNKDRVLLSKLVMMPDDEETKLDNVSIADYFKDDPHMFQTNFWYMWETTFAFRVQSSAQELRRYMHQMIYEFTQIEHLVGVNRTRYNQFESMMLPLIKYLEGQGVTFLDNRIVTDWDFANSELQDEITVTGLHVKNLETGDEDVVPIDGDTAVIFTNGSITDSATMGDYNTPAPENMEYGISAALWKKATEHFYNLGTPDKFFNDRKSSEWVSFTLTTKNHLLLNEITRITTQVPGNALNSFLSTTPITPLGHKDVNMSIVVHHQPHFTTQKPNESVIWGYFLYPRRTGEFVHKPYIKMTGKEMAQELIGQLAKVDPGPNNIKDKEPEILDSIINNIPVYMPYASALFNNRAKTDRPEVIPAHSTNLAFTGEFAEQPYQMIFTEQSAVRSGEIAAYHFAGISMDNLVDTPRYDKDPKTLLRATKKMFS

## Cc1cc2nc3c(=O)[nH]c(=O)nc-3n(C[C@H](O)[C@H](O)[C@H](O)COP(=O)(O)OP(=O)(O)OC[C@H]3O[C@@H](n4cnc5c(N)ncnc54)[C@H](O)[C@@H]3O)c2cc1C [FAD]
[1]
  activity of apoenzyme after addition of FAD, LC-APPI-MS: The addition of cofactor FAD to apoenzyme was essential for activity
[2]
  activity of apoenzyme after addition of FAD, LC-APPI-MS: The addition of cofactor FAD to apoenzyme was essential for activity
[3]
  activity of apoenzyme after addition of FAD, LC-APPI-MS: The addition of cofactor FAD to apoenzyme was essential for activity
[4]
  activity of apoenzyme after addition of FAD, LC-APPI-MS: The addition of cofactor FAD to apoenzyme was essential for activity
